Laboratory results published in patent US20120157401A1, “METHODS FOR TREATING NEUROFIBROMATOSIS” (PTC Therapeutics, Inc., priority 2009, published 2012).
Marks after values point to notes of the source that are not given here.

Experiments:
Human VEGF-A = experiment: HT1080 xenograft selectivity studies: intratumoral VEGF-A ELISA; format: in vivo; settings: Study 5, 15-days, treatment initiated at ~600 mm^3
Source text: Experimental Design. […] All of these factors can be produced at tumor sites, and all may support tumor growth and metastases. See Yoon et al., Circ Res. 2003, 93(2):87 90; Ferrara et al., Nat. Rev. Drug Discov. […] Biophys. Acta 2004,1654(1):79 94; Saharinen et al., Trends Immunol. 2004, 25(7):387 95. There is also evidence that VEGF-A may stimulate production of P1GF by a post transcriptional mechanism. See Yao et al., FEBS Lett. 2005, 579(5):1227 34. VEGF-B was not assessed. […] See Vagner at al., Mol. Cell. Biol. 1995, 15(1):35 44; Hellen et al., Genes Dev. 2001, 15(13):1593 612. The survivin protein was similarly evaluated because the survivin mRNA has an IRES. PDGF was assessed because this protein has angiogenic activity and its mRNA contains an IRES. See Sella et al., Mol. Cell. Biol. 1999, 19(8):5429 40; Hellen et al., supra. Endostatin was included because antiangiogenic treatment in vivo has shown that compensatory […] in endogenous angiogenic inhibitors such as endostatin, thrombospondin, and angiostatin, results in a more pro angiogenic environment. See Sim, Angiogenesis, 1998, 2(1):37-48.
In all of these experiments, HT1080 cells (5×10^6 cells/mouse) were implanted subcutaneously in male athymic nude mice. When tumors had become established, mice were divided into groups (10 mice/group). […] Tumor size was measured by calipers at the beginning and end of treatment. […]

MDA-MB-468 xenografts = experiment: MDA-MB-468 estrogen-insensitive breast cancer xenograft: tumor growth; format: in vivo
Protocol: Tumor size was measured by calipers at periodic intervals. When the individual tumor size in a mouse exceeded 1500 mm^3, that mouse was sacrificed and both tumor and plasma were assayed for pathologic VEGF concentration as described in Section 9.1.1.1.

HT1080 spheroids = experiment: 3-dimensional growth of HT1080 spheroids (BrdU / 7-AAD FACS, morphology); format: cell-based, human
Protocol: Experimental Design. HT1080 cells grown as a monolayer were trypsinized and seeded onto a 0.75% agar noble base to prevent the cells from attaching to the bottom of the tissue culture plate and to allow/promote the cells to self-adhere and grow as 3-dimensional spheroids. […] The cells were incubated for 22 and 45 hours at 37° C., in the presence of a 10% CO2 atmosphere. Spheroids were visually checked daily for morphological changes and a medium was replenished two times per week. […] These pulse labeled spheroids were then harvested, washed and trypsinized (triple action solution, Gibco), pelleted and prepared for FACS analysis with a FITC BrdU Flow Kit, (BD Pharmingen). Cells were fixed and permeabilized with paraformadehyde and DNA stained with 7-AAD followed by incubation with an antibody which specifically recognizes […] incorporated into DNA. As described in Section 9.3.1.4. Cells were analyzed and sorted by 7-AAD signal (DNA content) to determine cell cycle phase, and BrdU content (percent actively synthesizing DNA).
Spheroids, prepared as above, were treated with either vehicle alone (0.5% DMSO v/v final) added to the media or a Compounds provided herein (10 nM or 50 nM final concentration) in media to which vehicle has been added.

[1] = 7-day oral toxicity study in rats; format: in vivo
Protocol: A battery of genotoxicity studies was also performed. […] The L23 vehicle was used.
Maximal exposures occurred at a dose of 120 mg/kg/day.

[2] = tested on: Chinese hamster ovary (CHO) cells; experiment: Chromosome aberration study in CHO cells; format: cell-based; settings: with and without metabolic activation
Protocol: (§1) Genotoxicity was assessed in a battery of in vitro and in vivo studies that included a bacterial reverse mutation study, a chromosome aberration study in Chinese hamster ovary (CHO) cells, and a micronucleus study in rats by the oral route. The in vitro studies were performed in the presence and absence of an exogenous metabolic activation system.

[3] = Micronucleus study in rats by the oral route; format: in vivo
Protocol: as §1

IL-6 = experiment: Patients: serum and plasma IL-6 levels; format: in vivo, human
Protocol: Subjects with NF2 may receive continuous daily treatment with a Compound administered at 100 mg per dose, 2 times a day (BID) for up to 1 year, or longer as appropriate, or until tumor progression. […] Tumor shrinkage or an improvement in hearing are indicators of efficacy.
Anti-angiogenic activity: Assessing VEGF concentrations provides a relevant and convenient mechanism-specific marker of Compound activity. […] For example, clinically validated ELISA kits (e.g., from R&D Systems, Minneapolis, Minn.) may be used to measure concentrations of VEGF, VEGF-C, P1GF, VEGFR, and inflammatory mediators such as IL-6 and IL-8. CT scan and MRI scan may also be used to assess peritumoral inflammation or edema.
Blood for VEGF, VEGFR, and Cytokines. Two blood samples (1 for plasma and 1 for serum) may be obtained for assessment of VEGF, VEGFR, and cytokine levels.
After processing, samples may be placed into a freezer at approximately −70° C. An ELISA-based multiplex system may be used to measure plasma VEGF and cytokine levels.

tumor perfusion = experiment: Patients: tumor perfusion by DCE-MRI; format: in vivo, human
Source text: Tumor perfusion using DCE-MRI: Assessing tumor blood flow offers an additional parameter of a Compound's action that can confirm the downstream consequences of decreasing tumor VEGF. Measurement of blood flow in target lesions provides direct evidence of a Compound's action on tumors that can be correlated with plasma VEGF changes. Assessment of tumor perfusion using DCE-MRI may be used to evaluate the efficacy of a Compound using standard protocols (see., e.g., Morgan et al., J. Clin. Oncol., Nov. 1, 2003, 21(21):3955-64; Leach et al., Br. J. Cancer, May 9, 2005, 92(9):1599-610; Liu et al., J. Clin. Oncol., August 2005, 23(24): 5464-73; and Thomas et al., J. Clin. Oncol., Jun. 20, 2005, 23(18):4162-71).
Tumor Perfusion with DCE-MRI. Subjects may undergo DCE-MRI for the target lesion of interest during the screening period and between 1 to 8 hours after the AM dose at various times throughout the treatment protocol.

SMILES: COc1ccc(C2c3[nH]c4ccc(Cl)cc4c3CCN2C(=O)Oc2ccc(Cl)cc2)cc1 (racemic) [Compound #10]
- Decrease in intratumoral VEGF levels (Human VEGF-A): 78%
- Mean % Inhibition of Tumor Size vs Vehicle at Day 12 (MDA-MB-468 xenografts; 10 mg/kg oral QD): 65* %
- Median Time to Tumor Size ≧1000 mm^3 (MDA-MB-468 xenografts; 10 mg/kg oral QD): 25 days
- Toxicity on observing the animals (MDA-MB-468 xenografts; MDA-MB-468 xenograft mice, 10 mg/kg QD): no evidence of toxicity
- Cell cycle distribution of HT1080 spheroids (HT1080 spheroids; 24 or 48 hours): not affected
- Percentage of spheroid cells that incorporated BrdU (HT1080 spheroids; 24 or 48 hours): not significantly altered
- Morphology of spheroids (HT1080 spheroids; maintained in the presence of compound for three weeks, data not shown): no obvious morphological changes
- Dose of maximal exposures ([1]; Sprague Dawley, rat, in vivo, po, 7 days): 120 mg/kg/day
- NOAEL for 7-days ([1]; female rats): 120 mg/kg/day
- NOAEL for 7-days ([1]; male rats): 40 mg/kg/day
- Mean prothrombin time (PT) and activated partial thromboplastin time (aPTT) ([1]; rat, in vivo, 120 mg/kg/day): increases
- Genotoxic effects, chromosome aberration in CHO cells [2]: no evidence of genotoxic effects
- Genotoxic effects, micronucleus in rats [3]: no evidence of genotoxic effects
- Plasma IL-6 levels in patients (FIG. 38) (IL-6): reduced
- Tumor perfusion in patients by DCE-MRI (FIG. 36) (tumor perfusion): reduced
